± gives the expanded uncertainty stated by the source.
Test: xn = mol fraction of the nth substance listed
Conditions: Gas, Burnett expansion method

Work on `FC(C(F)(F)F)C(F)(F)F` [1,1,1,2,3,3,3-heptafluoropropane] + FCF yielded a mass density (390 K, 329.74 kPa, x2 = 0.5155) of 11.344 ± 0.01 kg/m3, a mass density (390 K, 356.74 kPa, x2 = 0.2648) of 15.716 ± 0.013 kg/m3 and a mass density (390 K, 362.31 kPa, x2 = 0.7809) of 8.862 ± 0.008 kg/m3. The mass density (390 K, 451.27 kPa, x2 = 0.5155) was 15.65 ± 0.012 kg/m3, the mass density (390 K, 486.71 kPa, x2 = 0.2648) was 21.683 ± 0.016 kg/m3 and the mass density (390 K, 496.17 kPa, x2 = 0.7809) was 12.226 ± 0.009 kg/m3. The mass density (390 K, 615.63 kPa, x2 = 0.5155) was 21.59 ± 0.015 kg/m3, the mass density (390 K, 661.34 kPa, x2 = 0.2648) was 29.916 ± 0.02 kg/m3 and the mass density (390 K, 677.89 kPa, x2 = 0.7809) was 16.867 ± 0.012 kg/m3. The mass density (390 K, 836.32 kPa, x2 = 0.5155) was 29.786 ± 0.019 kg/m3, the mass density (390 K, 893.34 kPa, x2 = 0.2648) was 41.274 ± 0.025 kg/m3 and the mass density (390 K, 922.76 kPa, x2 = 0.7809) was 23.271 ± 0.015 kg/m3. For the same compound, the mass density (390 K, 1129.5 kPa, x2 = 0.5155) was 41.093 ± 0.025 kg/m3, the mass density (390 K, 1196.7 kPa, x2 = 0.2648) was 56.943 ± 0.034 kg/m3 and the mass density (390 K, 1249.8 kPa, x2 = 0.7809) was 32.105 ± 0.02 kg/m3. For the same compound, the mass density (390 K, 1513 kPa, x2 = 0.5155) was 56.692 ± 0.034 kg/m3, the mass density (390 K, 1584.8 kPa, x2 = 0.2648) was 78.563 ± 0.046 kg/m3 and the mass density (390 K, 1679.1 kPa, x2 = 0.7809) was 44.251 ± 0.027 kg/m3. It also gave a mass density (390 K, 2003.7 kPa, x2 = 0.5155) of 78.212 ± 0.047 kg/m3, a mass density (390 K, 2065.6 kPa, x2 = 0.2648) of 108.39 ± 0.064 kg/m3 and a mass density (390 K, 2236.4 kPa, x2 = 0.7809) of 61.05 ± 0.038 kg/m3. The mass density (390 K, 2613.6 kPa, x2 = 0.5155) was 107.901 ± 0.064 kg/m3, the mass density (390 K, 2634 kPa, x2 = 0.2648) was 149.541 ± 0.091 kg/m3 and the mass density (390 K, 2940 kPa, x2 = 0.7809) was 84.226 ± 0.052 kg/m3. For the same compound, the mass density (390 K, 3260.4 kPa, x2 = 0.2648) was 206.316 ± 0.12 kg/m3, the mass density (390 K, 3338.4 kPa, x2 = 0.5155) was 148.86 ± 0.088 kg/m3 and the mass density (410 K, 105.73 kPa, x2 = 0.2648) was 4.333 ± 0.009 kg/m3. It also gave a mass density (410 K, 106.47 kPa, x2 = 0.7809) of 2.443 ± 0.005 kg/m3, a mass density (410 K, 133.75 kPa, x2 = 0.5155) of 4.316 ± 0.007 kg/m3 and a mass density (410 K, 145.48 kPa, x2 = 0.2648) of 5.979 ± 0.009 kg/m3. For the same compound, the mass density (410 K, 146.65 kPa, x2 = 0.7809) was 3.371 ± 0.005 kg/m3, the mass density (410 K, 184.04 kPa, x2 = 0.5155) was 5.954 ± 0.008 kg/m3 and the mass density (410 K, 199.99 kPa, x2 = 0.2648) was 8.248 ± 0.01 kg/m3. The mass density (410 K, 201.86 kPa, x2 = 0.7809) was 4.651 ± 0.006 kg/m3, the mass density (410 K, 253.05 kPa, x2 = 0.5155) was 8.214 ± 0.008 kg/m3 and the mass density (410 K, 274.54 kPa, x2 = 0.2648) was 11.38 ± 0.011 kg/m3. For the same compound, the mass density (410 K, 277.79 kPa, x2 = 0.7809) was 6.417 ± 0.006 kg/m3, the mass density (410 K, 347.32 kPa, x2 = 0.5155) was 11.332 ± 0.01 kg/m3 and the mass density (410 K, 376.14 kPa, x2 = 0.2648) was 15.701 ± 0.013 kg/m3. For the same compound, the mass density (410 K, 381.49 kPa, x2 = 0.7809) was 8.853 ± 0.008 kg/m3, the mass density (410 K, 475.89 kPa, x2 = 0.5155) was 15.634 ± 0.012 kg/m3 and the mass density (410 K, 513.94 kPa, x2 = 0.2648) was 21.661 ± 0.015 kg/m3. It also gave a mass density (410 K, 522.95 kPa, x2 = 0.7809) of 12.214 ± 0.009 kg/m3, a mass density (410 K, 650.2 kPa, x2 = 0.5155) of 21.568 ± 0.014 kg/m3 and a mass density (410 K, 699.84 kPa, x2 = 0.2648) of 29.885 ± 0.019 kg/m3. It also gave a mass density (410 K, 715.45 kPa, x2 = 0.7809) of 16.85 ± 0.012 kg/m3, a mass density (410 K, 885.1 kPa, x2 = 0.5155) of 29.756 ± 0.019 kg/m3 and a mass density (410 K, 948.18 kPa, x2 = 0.2648) of 41.232 ± 0.025 kg/m3. The mass density (410 K, 975.71 kPa, x2 = 0.7809) was 23.247 ± 0.015 kg/m3, the mass density (410 K, 1199.1 kPa, x2 = 0.5155) was 41.051 ± 0.025 kg/m3 and the mass density (410 K, 1275.5 kPa, x2 = 0.2648) was 56.886 ± 0.033 kg/m3. For the same compound, the mass density (410 K, 1325.1 kPa, x2 = 0.7809) was 32.073 ± 0.02 kg/m3, the mass density (410 K, 1613 kPa, x2 = 0.5155) was 56.634 ± 0.033 kg/m3 and the mass density (410 K, 1699.6 kPa, x2 = 0.2648) was 78.483 ± 0.045 kg/m3. For the same compound, the mass density (410 K, 1786.7 kPa, x2 = 0.7809) was 44.206 ± 0.027 kg/m3, the mass density (410 K, 2149.2 kPa, x2 = 0.5155) was 78.132 ± 0.045 kg/m3 and the mass density (410 K, 2235 kPa, x2 = 0.2648) was 108.28 ± 0.061 kg/m3. The mass density (410 K, 2392.4 kPa, x2 = 0.7809) was 60.988 ± 0.037 kg/m3, the mass density (410 K, 2828 kPa, x2 = 0.5155) was 107.791 ± 0.062 kg/m3 and the mass density (410 K, 2887.1 kPa, x2 = 0.2648) was 149.389 ± 0.085 kg/m3. It also gave a mass density (410 K, 3168.3 kPa, x2 = 0.7809) of 84.141 ± 0.051 kg/m3, a mass density (410 K, 3641.6 kPa, x2 = 0.2648) of 206.107 ± 0.12 kg/m3 and a mass density (410 K, 3658.2 kPa, x2 = 0.5155) of 148.709 ± 0.087 kg/m3.
